# Test: Inhibition of yeast chymotrypsin-like 20S proteasome using suc-LLVY-AMC as substrate pretreated for 1 hr followed by substrate addition measured every 2 mins for 1 hr by fluorescence assay
# Set-up: species or system Saccharomyces cerevisiae
row,Compound,IC50
1,Nc1nc(/C=C/CNC(=O)c2cc(Br)c[nH]2)c[nH]1,23 µM
2,NC1=N[C@@]23CCCN2C(=O)c2[nH]cc(Br)c2[C@H]3N1,69 µM
3,N=C(N)Nc1c2n(c(=O)c3[nH]cc(Br)c13)CCC2,> 100 µM
4,N=C1N[C@@H](O)[C@@]2(N1)[C@@H](Cl)[C@H](CN)[C@H]1CN3C(=O)c4ccc(Br)n4[C@@H]4NC(=N)N[C@@]43[C@@H]12,9.2 µM
5,Nc1ncc(/C=C/CNC(=O)c2ccc(Br)[nH]2)[nH]1,27 µM
6,N=C(N)Nc1c2n(c(=O)c3[nH]c(Br)cc13)CCC2,> 100 µM

# Reference: ChEMBL document CHEMBL4196239, “Bromopyrrole Alkaloid Inhibitors of the Proteasome Isolated from a Dictyonella sp. Marine Sponge Collected at the Amazon River Mouth” (J Nat Prod, 2018)
